From a melting point compilation (Tetko et al.; mined from patent text by program, amines drawn as free bases though some values may be those of a salt) come the findings set out here.

The structures appear in SMILES notation.

For the compound `CCc1c2c(nc3cc(F)c(OC)cc13)-c1cc3c(c(=O)n1C2)COC(=O)CC3(O)CC` (stereo not drawn), the melting point is above 275 °C.

In the case of `COc1ccc2cc(-c3nccn3C)ccc2n1`, the melting point lay in the range of 116 to 118 °C.

Consider `COc1cc(C(=O)CS(=O)(=O)c2ccccc2)ccc1Cc1cn(C)c2ccc(NC(=O)NC3CCCC3)cc12`, for which the melting point lay in the range of 203 to 206 °C.

`O=C1Nc2ccc(I)cc2C1=NNC(=O)c1ccc(Oc2ccccc2)cc1` returned a melting point of 296 °C.

In turn, `COc1ccc(CCNCC(O)c2ccc(OCc3ccccc3)c(OCc3ccccc3)c2)cc1OC` (stereo not drawn) gave a melting point of 79 to 81 °C.

For `COC(=O)c1ccc2cc(OC)c(OC)cc2c1-c1ccnc(Br)c1`, the melting point was in the range of 146 to 148 °C.

`O=C(c1ccccc1)C(F)c1ccccc1` (stereo not drawn) registered a melting point of 50 to 51 °C.

`COc1cc(CO)cc(OC)c1Br` displayed a melting point of 100 to 102 °C.

In turn, `CCC(=O)NCC[C@@H]1CCc2cc(Br)c(O)cc21` returned a melting point of 146 to 148 °C.

Turning to `CC(NCC#N)C(O)(Cn1cncn1)c1ccc(F)cc1F` (stereo not drawn), the melting point was 138 to 139 °C.

`Cc1ccc2c(c1)CC(n1ccnc1C(N)=O)C2=O` (stereo not drawn) had a melting point of 196 °C.

The compound `COC(=O)CCCCCCCC(=O)CCC(=O)COC(C)=O` displayed a melting point of 64 to 65 °C.

Compound `Nc1noc(C23CCCN(CC2)C3)n1` (stereo not drawn) had a melting point of 197 to 199 °C.

Consider `COc1cc2c(C3=CCNCC3)c[nH]c2cc1Cl`, for which the melting point lay in the range of 222 to 224 °C.

`CCC(=O)c1cc(O)cc2cc(-c3ccc(O)cc3)oc12` displayed a melting point of 257 to 260 °C.

For the compound `CC(O)c1cc([N+](=O)[O-])ccc1F` (stereo not drawn), the melting point was below 50 °C.

On to `O=C1CCN(C(=S)Nc2ccc(Cl)cc2)N1c1ccc(Cl)cc1`, for which the melting point lay within 121 to 124 °C.

For `CN(C)C(C)(C)C(N)=O`, the melting point was in the range of 109 to 111 °C.

`CNc1ccc(S(=O)(=O)Nc2ccccc2)cc1` yielded a melting point of 113 to 114 °C.

In turn, `CS(=O)(=O)NCCCCC(c1cc(F)ccc1F)S(=O)(=O)c1ccc(Cl)cc1` (stereo not drawn) came in with a melting point of 106 to 107 °C.

`Cc1cc(C)c2c(n1)-c1ccccc1C2=O` registered a melting point of 102 to 104 °C.

On to `Cc1oncc1C(=O)Nc1ccc(-n2nc(C3CC3)cc2C2CC2)cc1`, for which the melting point is 153 to 158 °C.

`COC(=O)C1=C(Cl)/C(=N/OS(C)(=O)=O)CC(c2ccc(Cl)c(OC)c2F)N1` (stereo not drawn) gave a melting point of 64 to 66 °C.

Consider `N#CC(c1ccnc(NCCc2c[nH]cn2)n1)c1nc2ccccc2s1` (stereo not drawn), for which the melting point fell in the range of 257 to 258 °C.

In turn, `COc1ccc(-c2[nH]nc3c2C(=O)c2c(NC(=O)NNC(=O)c4ccccc4O)cccc2-3)cc1` had a melting point of 280 °C.

`CN1C2CCC1[C@H](CO)[C@@H](c1cccs1)C2` (stereo partly drawn) displayed a melting point of 154 to 158 °C.

Compound `CC(C)Cc1ccc2ccc(N)nc2n1` gave a melting point of 125 to 127 °C.

In turn, `Brc1ccc2nc(-c3ccc4ccccc4c3)cn2c1` gave a melting point of 226 to 228 °C.

With `CCOc1cccc(N(C(=O)CCC(=O)O)c2cc(C(C)(C)C)c(O)c(C(C)(C)C)c2)c1`, the melting point fell in the range of 128 to 130 °C.

Take `CCCc1cc(O)nc(SCC(N)=O)n1`: the melting point fell in the range of 200 to 203 °C.

Compound `N#Cc1ccc(Cl)cc1OC[C@@H]1CO1` had a melting point of 85 to 86 °C.

Compound `Cc1cc2c3c(c1)C(=O)C(=O)N3CCC2` came in with a melting point of 188 °C.

`CC(C)c1ccc(CN2CCC(NC(=O)NC(=O)c3ccccc3)CC2)cc1` showed a melting point of 240 to 242 °C.

The compound `CC1(C)OC(=O)N(Cc2ccccc2[N+](=O)[O-])C1O` (stereo not drawn) registered a melting point of 119 to 120 °C.

The compound `NCC(=O)NCc1ccc(F)cc1` registered a melting point of 114 to 115 °C.

The compound `Cc1nc(N2C[C@@H](Cc3ccccc3)NC2=O)sc1C(=O)NCc1ccccc1` gave a melting point of 212 to 214 °C.

Turning to `O=C1c2ccccc2C(=O)c2sc(-c3cc(Br)co3)nc21`, the melting point was above 260 °C.

With `c1cc2c(cn1)ncn2CCCCc1nnnn1C1CCCCC1`, the melting point was in the range of 93 to 95 °C.

With `N#CC(C#N)(CCCSC(F)(F)F)CC(F)(F)C(F)(F)C(F)(F)C(F)(F)C(F)(F)F`, the melting point lay within 88 to 90 °C.

Regarding `O=C(C=Cc1ccco1)Nc1nnn[nH]1`, the melting point was in the range of 287 to 289 °C.

As to `O=C(O)c1cccc2c1CC(N(CCCc1c[nH]c3c(F)cc(F)cc13)C1CCC1)CO2` (stereo not drawn), the melting point was in the range of 130 to 131 °C.

`O=C(c1ccccc1)N1CCCc2ncc3ccccc3c21` came in with a melting point of 208 to 210 °C.

The compound `CC(C)Cn1c(=O)n(C)c(=O)c2c(Sc3ccccn3)c(Cc3cccc4ccccc34)sc21` returned a melting point of 148 to 149 °C.

Regarding `CCCc1[nH]c(C(=O)OCC)c(C)c1CCC`, the melting point lay in the range of 84 to 87 °C.

In turn, `CN1CCC(CC(O)c2cc(-c3ccccc3)nc3ccccc23)CC1` (stereo not drawn) came in with a melting point of 208 °C.

`CS(=O)(=O)c1nc2c(F)cccc2s1` had a melting point of 160 °C.

The compound `Nc1nnc(-c2ccccc2Nc2cccc(C(F)(F)F)c2)o1` displayed a melting point of 185 to 187 °C.

Compound `CCCCC1=C(Cl)C(=O)c2ccccc2C1=O` registered a melting point of 69 to 70 °C.

Regarding `CCCN(CC(=O)NC12CC3CC(CC(C3)C1)C2)C(=O)NCCCc1ccncc1`, the melting point turned out to be 132 °C.

`Nc1cc(F)ccc1C(=O)CCCN1CCN(c2cc3ccccc3cn2)CC1` returned a melting point of 124 to 128 °C.

As to `O=C(c1ccc(-c2ccccc2)cc1)N1Cc2cccnc2Nc2ccccc21`, the melting point is 175 to 177 °C.

`CSc1ccc(Oc2ccc([N+](=O)[O-])cc2C#N)cc1` returned a melting point of 124 to 126 °C.

As for `CCCCCCCN(Cc1ccc(C(C)(C)C)cc1)C(Nc1c(C)cc(C)cc1C)=C1C(=O)COC1=O`, the melting point lay within 141 to 143 °C.

`CCOCCN(CC1=CCC(N)(Oc2ccccc2)C=C1)C(=O)C(Cl)Cl` (stereo not drawn) came in with a melting point of 96 to 98 °C.

`CC(C)(C)c1ccc(CN2CCC3(CC2)CC(=O)c2ccccc2O3)cc1` came in with a melting point of 149 to 151 °C.

In the case of `COc1cc(C(=O)NN)cc(OC)c1OCCCN(C)C`, the melting point is 95 to 96 °C.

In turn, `O=C(O)c1cc(-n2c(-c3ccc(F)cc3)cc3c2CCCC3)ccc1O` showed a melting point of 239 to 240 °C.

In turn, `O=C1C2=C(CCCC2)C(=O)N1c1ccc(Cl)c2c1CC(CO)O2` (stereo not drawn) came in with a melting point of 193 to 195 °C.

With `CCCS(=O)(=O)Nc1ccc(-c2ccc(C(=O)O)c(=O)[nH]2)cc1`, the melting point is above 260 °C.

Compound `CC(C)(C)OC(=O)NCCCCC(=O)N1CCC(c2[nH]nc3c2C(=O)c2c(NC(=O)NN4CCOCC4)cccc2-3)CC1` yielded a melting point of 98 to 99 °C.

Consider `COc1cc(N)c(Cl)cc1C(=O)NCC1CCN(CCCCCSc2ccccc2)CC1`, for which the melting point was 143 to 144 °C.

For `COc1cc(C(O)c2ccccc2S(=O)(=O)Nc2ccccc2C)cc2c1OCO2` (stereo not drawn), the melting point was 155 to 158 °C.

In turn, `COc1ccc2cc(-c3ccc(C#C[Si](C)(C)C)cc3)[nH]c(=O)c2c1` had a melting point of 133 to 135 °C.

Compound `COC1(c2csc(Sc3ccc(/C(C)=N/O)cn3)c2)CCOCC1` returned a melting point of 151 to 153 °C.

Compound `O=C(NO)C(CCN1C(=O)c2ccccc2C1=O)NS(=O)(=O)c1ccc(-c2ccc(Cl)cc2)cc1` (stereo not drawn) had a melting point of 184 to 186 °C.

With `O=C1c2ccccc2C(=O)c2sc(-c3ccc(F)cc3)nc21`, the melting point is above 260 °C.

On to `O=C1NC(c2ccccc2)C(=O)NC1c1ccccc1` (stereo not drawn), for which the melting point is 282 to 284 °C.

In the case of `COc1ccc(C2(O)c3cccc(O)c3C(=O)c3c(O)cccc32)cc1`, the melting point lay in the range of 172 to 173 °C.

For `Cc1cc(C(F)(F)F)nn1CC(=O)N1CCC(c2nc(NC(=O)C3=C(O)CCCC3=O)cs2)CC1`, the melting point lay within 102 to 105 °C.

On to `CS(=O)(=O)N(c1ccc(Cl)c(C(=O)Nc2cccc3c4c(oc23)CCCC4)c1Cl)S(C)(=O)=O`, for which the melting point was 237 to 238 °C.

Compound `CN1CCN(C)C1=Nc1ccccc1CN1CCOCC1` yielded a melting point of 56 to 58 °C.

Consider `CC(C)(C)OC(=O)N1CC2CN(C(N)=S)CC2C1` (stereo not drawn), for which the melting point was in the range of 188 to 190 °C.

Take `Nc1ncc(CCCCCc2cccc3ccccc23)c(N)n1`: the melting point lay in the range of 128 to 133 °C.

In turn, `CC1(C)C2CCC1(C)C(O)(c1ccccc1)C2` (stereo not drawn) gave a melting point of 41 to 42 °C.

With `COc1ccc(OCc2ccc(C(=O)c3ccccc3)cc2)cc1OC`, the melting point lay within 74 to 75 °C.

Compound `NC(=S)c1sccc1N` displayed a melting point of 98 to 99 °C.

`CC(=O)N1N=C(c2ccncc2)OC1c1ccc(Cl)c(Cl)c1` (stereo not drawn): the melting point is 101 to 104 °C.

`COc1ccccc1C=CCCCCCC(=O)O` gave a melting point of 42 to 43 °C.

With `CCN(CC)CC1CCCCN1CC(=O)N1c2ccccc2NC(=O)c2ccccc21` (stereo not drawn), the melting point lay within 171 to 172 °C.

As to `COc1cccc(C2C(C(=O)O)CC(=O)N2c2ccccc2)c1` (stereo not drawn), the melting point fell in the range of 145 to 149 °C.

With `C[C@@H]1S[C@@H](C(=O)Nc2ccc(CN3C(=O)CNC3=O)cc2)Cc2cc3c(cc2C1=O)OCO3`, the melting point lay within 139 to 144 °C.

On to `COCCOCCCCC(=O)c1ccc(Br)cc1`, for which the melting point lay within 25.5 to 26.5 °C.

In turn, `COC(=O)c1ccc(OC2=C3N=C4CCCCC4=C3C(Cc3ccc(C)cc3)C=C2)o1` (stereo not drawn) showed a melting point of 80 to 81 °C.

In the case of `CNCc1nnc2n1-c1ccc(Cl)cc1C(c1ccccc1)=NC2`, the melting point was 152 to 156 °C.

Turning to `CS(=O)(=O)NC(=O)N1CC1C#N` (stereo not drawn), the melting point is 110 to 112 °C.

For `O=S1(=O)c2sccc2C(O)CN1Cc1ccncc1` (stereo not drawn), the melting point lay in the range of 183 to 185 °C.

`Nc1ncnc2c1nc(COCP(=O)(O)O)n2CCC1CCCCC1`: the melting point was above 250 °C.

As for `CCN(C)c1nc(-c2ccncc2)nc2sc(C#N)c(C)c12`, the melting point was in the range of 162 to 164 °C.

Regarding `NS(=O)(=O)c1ccc(-c2cccc(-c3nc(-c4ccc(C(F)(F)F)nc4)cc(C(F)F)n3)c2)s1`, the melting point stood at 246 °C.

For `COc1cc2c(cc1O)CCN(Cc1cc(OC)c(OC)cc1OC)C2`, the melting point fell in the range of 152 to 153 °C.

`O=C(O)CN1C(=O)C(=CCCCCl)SC1=S` came in with a melting point of 155 to 157 °C.

On to `O=c1n(CCCN2CCC(c3c[nH]c4ccccc34)CC2)nc2ccccn12`, for which the melting point amounted to 112 °C.

Compound `COC(=O)CCCc1cc2cc(Cl)ccc2n1S(=O)(=O)c1ccc(F)c([N+](=O)[O-])c1` yielded a melting point of 93 °C.

A word on the melting point: it is the temperature, or range, at which the solid turns liquid.
